Counter-ions that a name gives are not always drawn.
Columns and labels:
[1] = molecular target: T1, Human vitronectin receptor (αv β3) (Homo sapiens, UniProt P05106+P06756); assay: Vitronectin adhesion assay (solid phase receptor assay, biotinylated vitronectin competition); assay type: binding; conditions: inhibition of 50% of the maximum binding of biotinylated vitronectin; 1 nM labeled ligand, 2 hours, room temperature, highest concentration of test compound 1.0×10^-4 M; read-out: AvB3 IC50
T1 construct: Human vitronectin receptor(αv β3) was purified from human placenta; from tissue; host or cells: human placenta
In short: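 Placenta-purified αvβ3 coated at 1.0 μg/mL in TBS (1 mM Ca, Mg, Mn, pH 7.4), overnight 4 °C. Compound competed 2 h at RT with 1 nM biotinylated vitronectin (final; top compound 1.0×10^-4 M); bound ligand detected by HRP anti-biotin/OPD at 450 nm, normalized to no-competitor controls, four-parameter fit.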

[2] = molecular target: T2, Human fibrinogen receptor (αIIb β3) (Homo sapiens, UniProt P05106+P08514); assay: Purified IIb/IIIa receptor assay (solid phase receptor assay, biotinylated vitronectin competition); conditions: inhibition of 50% of the maximum binding of biotinylated vitronectin; 1 nM labeled ligand, 2 hours, room temperature, highest concentration of test compound 1.0×10^-4 M
T2 construct: Human fibrinogen receptor (αIIb β3) was purified from outdated platelets; from tissue; host or cells: outdated human platelets
In short: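 Platelet-purified αIIbβ3 was coated at 100 ng/well in TBS with 1 mM Ca²⁺/Mg²⁺/Mn²⁺, pH 7.4, then BSA-blocked. Compound (up to 1.0×10⁻⁴ M final) competed with 1 nM biotinylated vitronectin for 2 h at room temperature. Bound ligand was detected with HRP anti-biotin at A450, normalized to maximum binding, and curve-fitted.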

An IC50 [1] of 23.2 nM and an IC50 [2] of 706 nM were found for `N=C(N)Nc1cccc(S(=O)(=O)Nc2cccc(C(CC(=O)O)c3ccccc3O)c2)c1` (stereo not drawn) [Example 102, Sodium β-[3-[[[3[(aminoiminomethyl)amino]phenyl]-sulfonyl]amino]phenyl]-2-hydroxybenzenepropanoate, Trifluoroacetate Salt] in this work.

— patent US5773646A, “Meta-substituted phenylene derivatives” (G. D. Searle & Co., priority 1997, dated 1998)
